Molecules are shown by their SMILES.

The text below walks through data of patent US9522160B2, “Ophthalmic formulations” (Inotek Pharmaceuticals Corporation, priority 2013, dated 2016).

A short description of data set [1]: Stability study of a 3% suspension of Compound A (Formulation 3) spiked with latanoprost; latanoprost and latanoprost acid by HPLC. The class given is physicochemical. The protocol: Latanoprost is added, usually aseptically, to the Formulation after the curing step or after all other formulation steps as described above. For example latanoprost can be spiked into Formulation 3 with Compound A at 3.0% (Example 5 above) to prepare a unit dosage of a combination of Compound A with a concentration of latanoprost of about 50 ug/ml. A stability study has been done to study the stability of a combination of a suspension of Compound A as Formulation 3 and latanoprost. The stability study is described below.
A 10 mL sample of a 3% suspension of Compound A spiked with latanoprost at 50 μg/mL was used for the stability study. Ethanol was used to disperse the latanoprost into the suspension of Compound A. The final solution ethanol target was 0.5% so for 10 mLs of the suspension, the latanoprost was dissolved in 50 μL of ethanol.
For 10 mls of the suspension, 0.5 mg of latanoprost was needed for the spike. A 50 μL sample of a commercial solution containing 10 mg/mL of latanoprost in methyl acetate was taken and the solvent removed under vacuum. The residue was taken up in 50 μL of ethanol.
A 9.950 mL sample of the suspension, taken with a 5 mL autopipette (2×4.975 mL) was spiked with the ethanol solution with mixing.
After taking a 500 μL T0 sample, the bulk solution was divided into 3 containers that were set down at 2-8° C., 25° C./60RH and 40° C./75RH.
The solution in this case would be 0.5 mg in 8.5 mL volume or […] of latanoprost in the suspension. Therefore for analysis, the theoretical latanoprost in solution after a 50% dilution with acetonitrile was 29.4 μg/mL.
A calibration curve of latanoprost acid was also prepared using the commercial solution that contained 10 mg/mL in methyl acetate.
In contrast to the latanoprost standards, these solutions were prepared in 100% acetonitrile.
The solutions injected were 5, 2.5 and 1.25 μg/mL solutions.
The stability samples were prepared by vortex mixing and sonication of the suspension followed by a 50% dilution with acetonitrile. After centrifugation the supernatant was injected on the HPLC.
The assay results are shown below in Table 2 where the calculated concentration is shown in μg/mL. (The theory concentration is 29.4 μg/ml),
4 week samples. For the 4 week 25° C./60 and 40° C./75 samples the calculated latanoprost acid values were 0.4 and 0.3 μg/mL respectively. The impurities increased slightly at 3 months. For the 3 month 25° C./60 and 40° C./75 samples the calculated latanoprost acid values were 0.63 and 3.92 μg/mL respectively.
Except for the 40° C./75 sample at 3 months the values for all other samples were below the calibration curve concentrations and therefore below the detection level of the method.

In data set [2] the test system is retinal ganglion cells. The note with it: formulation of Compound A; cited from earlier work.
For data set [3], the system named is normotensive monkeys. The note with it: Compound A in combination with latanoprost; cited from earlier work.

`CC(C)OC(=O)CCC/C=C\C[C@@H]1[C@@H](CC[C@@H](O)CCc2ccccc2)[C@H](O)C[C@@H]1O` [Latanoprost, latanoprost]: the “Latanoprost Assay Results” value in data set [1] (2-8° C., 2 Weeks) came out at 32.29 µg/mL; in data set [1] (2-8° C., 3 Months, sample contained some latanoprost impurities), 35.63 µg/mL; in data set [1] (2-8° C., 4 Weeks), 33.97 µg/mL; in data set [1] (25° C./60, 2 Weeks) it was 32.37 µg/mL; in data set [1] (25° C./60, 3 Months, sample contained some latanoprost impurities) it was 30.42 µg/mL; in data set [1] (25° C./60, 4 Weeks, sample contained some latanoprost impurities), 32.90 µg/mL. Moreover, the “Latanoprost Assay Results” value came out at 31.35 µg/mL in data set [1] (40° C./75, 2 Weeks); 26.18 µg/mL in data set [1] (40° C./75, 3 Months, sample contained some latanoprost impurities); 29.90 µg/mL in data set [1] (40° C./75, 4 Weeks, sample contained some latanoprost impurities); 29.49 µg/mL in data set [1] (T0, 3% Compound A suspension spiked with latanoprost, 50% dilution with acetonitrile, theory concentration 29.4 μg/ml). Besides, the “Latanoprost Assay Results (% T0)” value in data set [1] (2-8° C., 2 Weeks) amounted to 109 % T0; in data set [1] (2-8° C., 3 Months), 121.1 % T0; in data set [1] (2-8° C., 4 Weeks), 115 % T0; in data set [1] (25° C./60, 2 Weeks) it was 110 % T0; in data set [1] (25° C./60, 3 Months), 103.5 % T0; in data set [1] (25° C./60, 4 Weeks) it was 112 % T0. Also, the “Latanoprost Assay Results (% T0)” value in data set [1] (40° C./75, 2 Weeks) was 106 % T0; in data set [1] (40° C./75, 3 Months), 89.0 % T0; in data set [1] (40° C./75, 4 Weeks), 101 % T0.
For `O=C(O)CCC/C=C\C[C@@H]1[C@@H](CC[C@@H](O)CCc2ccccc2)[C@H](O)C[C@@H]1O` [latanoprost acid], the “latanoprost acid present in stability sample” value in data set [1] (2-8° C., 4 week sample) is given as “No latanoprost acid was present”; in data set [1] (2 week samples), “No latanoprost acid was present”; in data set [1] (T0 sample) it was “No latanoprost acid was present”.
In the case of `O=[N+]([O-])OC[C@H]1O[C@@H](n2cnc3c(NC4CCCC4)ncnc32)[C@H](O)[C@@H]1O` [Compound A, ((2R,3S,4R,5R)-5-(6-(cyclopentylamino)-9H-purin-9-yl)-3,4-dihydroxytetrahydrofuran-2-yl)methyl nitrate], in data set [2], the “neuroprotective effect on retinal ganglion cells” value is recorded as “neuroprotective effect”. For the same compound, the IOP reduction result in data set [3] is reported as “significant IOP reduction”.
